Test results published in patent US20090036400A1, “Pharmaceutical Preparations for Treating the Consequences of Alcohol Abuse, Hepatitis, Pancreatitis, Alzheimer's Disease, Parkinson's Disease, Diabetes, Toxic Kidney Disease, Reperfusion Damage, Arteriosclerosis, and as an Antidote Against Environmental Toxins and Medicinal Intoxication” (priority 2004, published 2009).
Counter-ions that a name gives are not always drawn.

Each molecule was assayed against T1, cytochrome P450 2E1 (Rattus norvegicus, UniProt P05182) (assay: p-nitrophenol-hydroxylase activity determination (inhibiting constants)). Conditions: microsomal fraction of acetone-induced Sprague-Dawley rats; substrate p-nitrophenol; read-out: Ki (inhibiting constant).
T1 construct: from tissue
T1 sequence (P05182 whole entry): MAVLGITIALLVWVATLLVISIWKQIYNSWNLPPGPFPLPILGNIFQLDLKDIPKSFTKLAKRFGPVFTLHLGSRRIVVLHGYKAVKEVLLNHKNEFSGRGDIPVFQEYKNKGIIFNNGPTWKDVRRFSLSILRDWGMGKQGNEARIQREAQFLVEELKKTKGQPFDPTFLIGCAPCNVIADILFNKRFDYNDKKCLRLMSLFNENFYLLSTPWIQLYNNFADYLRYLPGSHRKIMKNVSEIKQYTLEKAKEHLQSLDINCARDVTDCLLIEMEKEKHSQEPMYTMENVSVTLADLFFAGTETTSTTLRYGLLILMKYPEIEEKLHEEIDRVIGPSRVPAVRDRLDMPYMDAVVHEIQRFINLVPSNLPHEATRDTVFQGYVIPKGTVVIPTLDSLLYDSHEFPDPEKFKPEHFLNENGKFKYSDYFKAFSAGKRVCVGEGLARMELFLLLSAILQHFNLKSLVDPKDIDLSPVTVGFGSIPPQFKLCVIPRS
Assay type: biochemical
Method: 8 male Sprague-Dawley rats were administered 5% acetone (v-v) in drinking water for 7 days, as described by M. H. Wang et al. in Arch. Biochem. Biophys. […] The preparation of the microsomal fraction is carried out based on the method published by Wang, P., Mason, P. S., Günderlich, F. G., in Arch. Biochem. Biophys.
p-Nitrophenol applies as a specific substrate for cytochrome P450 2E1.
Work on CCCCCCCCCCCCCCCCC(N)COP(=O)([O-])OCC[N+](C)(C)C (racemic) [rac-1-O-phosphocholine-2-amino-octadecane-hydrochloride] yielded a Ki of 2250 nM.
CCCCCCCCCCCCOP(=O)([O-])OCC[N+](C)(C)C [Dodecylphosphorylcholine] was tested, and the Ki was 450 nM.
With CCCCCCCCCCCCCCCCOP(=O)([O-])OCC[N+](C)(C)C [Hexadecylphosphocholine, reference compound] the Ki was 600 nM.
